In general, IC50 refers to the midpoint of a concentration-inhibition curve. As usually defined, the IC90 is the concentration needed for an effect of 90%. Lower therefore signals an effect from little substance.

The results in this text go back to PubChem BioAssay AID434987 (Southern Research Specialized Biocontainment Screening …, 2010).

The structures appear in SMILES notation. Active and inactive are the calls of the source. The rule behind the calls is not given here.

The test has as its system M. tuberculosis H37Rv growth inhibition with meropenem. Nature of the test: dose response, H37Rv, with and without meropenem (AID 434987).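 Note: growth over 7 days at 37 °C before Alamar Blue read on day 9.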
[1] abbreviates: M. tuberculosis H37Rv growth inhibition, measured here: IC50 without meropenem.
[2] abbreviates: M. tuberculosis H37Rv growth inhibition, measured here: IC90 without meropenem.
[3] abbreviates: measured here: IC90 with meropenem.

As to `Cc1cc(C(=O)CN2C(=O)NC(c3ccccc3)(c3ccccc3)C2=O)c(C)n1Cc1ccccc1`, the IC50 is > 100 µM (inactive). Under setting [1], the IC50 was greater than 100 µM. Further, the concentration for an effect of 90% (IC90) under setting [2] was greater than 100 µM. The IC90 under setting [3] was greater than 100 µM.
As to `CCOCC(=O)Nc1cc(C(F)(F)F)ccc1Oc1cccc(Br)c1`, the IC50 was 56.9 µM (inactive). The same compound showed an IC50 under setting [1] greater than 100 µM. In addition, the IC90 under setting [2] is greater than 100 µM. Under setting [3], this compound returned a concentration for an effect of 90% (IC90) greater than 100 µM.
In the case of `O=C(CCNc1ccccc1)c1cccc([N+](=O)[O-])c1`, the half-maximal inhibitory concentration (IC50) was 11.7 µM. The same compound showed an IC50 under setting [1] greater than 100 µM. For the same compound, under setting [2], the IC90 is greater than 100 µM. The same compound registered an IC90 under setting [3] of 45.8 µM.
For the compound `NC(=O)CC(NC(=O)Cc1ccc(Br)cc1)c1ccc(NC2CCCCCC2)c([N+](=O)[O-])c1` (stereo not drawn), the IC50 is 72.9 µM (inactive). In addition, under setting [1], the concentration for half-maximal inhibition (IC50) is greater than 100 µM. Under setting [2], this compound returned an IC90 greater than 100 µM. Under setting [3], this compound displayed a 90% effect concentration (IC90) greater than 100 µM.
For `COc1ccc(C(=O)Nc2ccccc2C(=O)NC(C(=O)NCc2ccco2)C(C)C)cc1` (stereo not drawn), the IC50 is > 100 µM (inactive). Under setting [1], this compound returned an IC50 greater than 100 µM. For the same compound, the 90% effect concentration (IC90) under setting [2] is greater than 100 µM. The same compound returned a concentration for an effect of 90% (IC90) under setting [3] greater than 100 µM.
Consider `COc1ccc(C2(CNC(=O)c3cc([N+](=O)[O-])cc([N+](=O)[O-])c3)CCCC2)cc1OC`, for which the IC50 is 1.43 µM (inactive). This compound displayed a concentration for half-maximal inhibition (IC50) under setting [1] of 1.86 µM. The 90% effect concentration (IC90) under setting [2] turned out to be 3 µM. Also, the IC90 under setting [3] was found to be 1.61 µM.
As for `O=C(NN=C(Cc1ccccc1)Cc1ccccc1)c1ccccc1F`, the IC50 is 1.64 µM. For the same compound, under setting [1], the IC50 was greater than 100 µM. Under setting [2], the 90% effect concentration (IC90) is greater than 100 µM. The concentration for an effect of 90% (IC90) under setting [3] was greater than 50 µM.
For the compound `COc1cc(CNc2ccc(NC(C)=O)cc2)ccc1OCc1ccccc1C`, the IC50 was > 100 µM (inactive). Besides, the half-inhibitory concentration (IC50) under setting [1] is greater than 100 µM. Further, the IC90 under setting [2] is greater than 100 µM. This compound returned a 90% effect concentration (IC90) under setting [3] greater than 100 µM.
Turning to `CSc1nc2cc3c(cc2n1C(=O)c1ccc(C)cc1)OCCO3`, the IC50 is 5.15 µM. This compound also yielded a concentration for half-maximal inhibition (IC50) under setting [1] greater than 100 µM. This compound yielded an IC90 under setting [2] greater than 100 µM. The same compound gave an IC90 under setting [3] greater than 100 µM.
On to `CCOC(=O)N1CCC(N2CCN(S(=O)(=O)c3ccc(Cl)cc3)CC2)CC1`, for which the IC50 was > 100 µM (inactive). The compound further displayed a concentration for half-maximal inhibition (IC50) under setting [1] greater than 100 µM. Under setting [2], this compound returned a concentration for an effect of 90% (IC90) greater than 100 µM. The concentration for an effect of 90% (IC90) under setting [3] was greater than 100 µM.
As to `COc1ccccc1N1CCN(CC(=O)Nc2cc(F)ccc2C)CC1`, the IC50 is 47 µM (inactive). Moreover, under setting [1], the concentration for half-maximal inhibition (IC50) was 58.6 µM. This compound also displayed an IC90 under setting [2] greater than 100 µM. In addition, the IC90 under setting [3] came out at 91 µM.
For `CCOC(=O)N1CCN(CC(=O)Nc2nnc(C(F)(F)F)s2)CC1`, in that order: 27.8 µM, greater than 100 µM, greater than 100 µM and 50.1 µM.
In the case of `CCOC(=O)CSc1nnc(NC(=O)c2cccc(S(=O)(=O)N3CCCCC3)c2)s1`, the IC50 is 23.8 µM (inactive). Besides, the half-maximal inhibitory concentration (IC50) under setting [1] was 41 µM. Besides, the concentration for an effect of 90% (IC90) under setting [2] is greater than 100 µM. For the same compound, under setting [3], the IC90 was greater than 100 µM.
Consider `CCCCC(=O)NC(=S)Nc1ccc(NC(=O)C(C)C)c(OC)c1`, for which the IC50 is 99.9 µM (inactive). Under setting [1], the IC50 is greater than 100 µM. The IC90 under setting [2] is greater than 100 µM. For the same compound, under setting [3], the 90% effect concentration (IC90) was greater than 100 µM.
For `O=C(/C=C/c1ccc([N+](=O)[O-])cc1)c1cccs1`, the concentration for half-maximal inhibition (IC50) was 5.35 µM. The IC50 under setting [1] is 22.2 µM. The compound also displayed an IC90 under setting [2] of 95.1 µM. Also, the IC90 under setting [3] turned out to be 12.2 µM.
On to `COc1nc(Nc2nc3ccccc3c(=O)[nH]2)nc2ccc(C)cc12`, for which the IC50 was > 100 µM (inactive). Also, the IC50 under setting [1] was greater than 100 µM. Further, under setting [2], the concentration for an effect of 90% (IC90) is greater than 100 µM. Under setting [3], this compound displayed a concentration for an effect of 90% (IC90) greater than 100 µM.
Regarding `N#Cc1ccc(NC(=O)COC(=O)C2=COCCO2)cc1`, the IC50 was > 100 µM (inactive). In addition, under setting [1], the IC50 is greater than 100 µM. The IC90 under setting [2] is greater than 100 µM. The compound further yielded a 90% effect concentration (IC90) under setting [3] greater than 100 µM.
`O=C(CCN1c2ccccc2Sc2ccccc21)Oc1ccccc1`: the IC50 was 8.48 µM. Further, the concentration for half-maximal inhibition (IC50) under setting [1] is greater than 100 µM. This compound also displayed an IC90 under setting [2] greater than 100 µM. This compound also returned a concentration for an effect of 90% (IC90) under setting [3] greater than 100 µM.
Regarding `CCCc1cc(C(=O)OCC(=O)N2CCN(c3ccc(OC)cc3)CC2)sc1C`, the IC50 was > 100 µM (inactive). Under setting [1], this compound showed a half-maximal inhibitory concentration (IC50) greater than 100 µM. Under setting [2], this compound came in with an IC90 greater than 100 µM. Under setting [3], this compound came in with an IC90 greater than 100 µM.
On to `Cc1cccc(NC(=S)NC2CC3C=CC2C3)c1` (stereo not drawn), for which the IC50 was 22.3 µM (inactive). Under setting [1], this compound yielded an IC50 of 23.8 µM. This compound displayed an IC90 under setting [2] greater than 100 µM. For the same compound, the concentration for an effect of 90% (IC90) under setting [3] is greater than 100 µM.
Turning to `CCCn1c2ccccc2c2nnc(SCC(=O)OCC)nc21`, the IC50 was 27.7 µM (inactive). Moreover, the IC50 under setting [1] was 29.1 µM. The concentration for an effect of 90% (IC90) under setting [2] is greater than 50 µM. For the same compound, the IC90 under setting [3] was greater than 100 µM.
Regarding `COc1ccc(Cn2c(=O)[nH]c3cc(C(=O)N4CCN(c5ccccc5F)CC4)ccc3c2=O)cc1`, the IC50 is > 100 µM (inactive). This compound gave a half-inhibitory concentration (IC50) under setting [1] greater than 100 µM. The compound further yielded an IC90 under setting [2] greater than 100 µM. Under setting [3], this compound yielded a concentration for an effect of 90% (IC90) greater than 100 µM.
